{"source": "patent US6924296B2", "about": "“Antithrombotic agents” (Eli Lilly and Company, priority 2000, dated 2005)", "biological_target": "human factor Xa (Homo sapiens, UniProt P00742)", "sequence (P00742 235-488 limits assumed)": "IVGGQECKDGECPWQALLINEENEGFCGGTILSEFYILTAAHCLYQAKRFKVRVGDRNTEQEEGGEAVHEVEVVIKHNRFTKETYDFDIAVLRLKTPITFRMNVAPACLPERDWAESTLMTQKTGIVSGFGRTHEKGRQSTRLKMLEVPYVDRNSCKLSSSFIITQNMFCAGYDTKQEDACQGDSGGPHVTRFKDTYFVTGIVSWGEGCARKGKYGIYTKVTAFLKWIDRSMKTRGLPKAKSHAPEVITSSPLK", "sequence (P00742 41-179 partner limits assumed)": "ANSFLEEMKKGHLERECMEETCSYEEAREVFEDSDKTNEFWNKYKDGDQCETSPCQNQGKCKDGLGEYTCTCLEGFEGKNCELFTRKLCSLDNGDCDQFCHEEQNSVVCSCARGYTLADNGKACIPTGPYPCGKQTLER", "experiment": "Factor Xa chromogenic substrate inhibitor binding affinity assay (apparent Kass)", "settings": "1.34 nM human factor Xa, 0.18 mM BzIle-Glu-Gly-Arg-pNA; mean value; read-out: Kass (apparent association constant) (converted)", "experimental": "The inhibition by a compound of the inhibition of a serine protease of the human blood coagulation system or of the fibrinolytic system, as well as of trypsin, is determined in vitro for the particular enzyme by measuring its inhibitor binding affinity in an assay in which the enzyme hydrolyzes a particular chromogenic substrate, for example as described in Smith, G. F.; Gifford-Moore, D.; Craft, T. J.; Chirgadze, N.; Ruterbories, K. J.; Lindstrom, T. D.; Satterwhite, J. H. Efegatran: A New Cardiovascular Anticoagulant. New Anticoagulants for the Cardiovascular Patient; Pifarre, R., Ed.; Hanley & Belfus, Inc.: Philadelphia, 1997; pp. 265-300. The inhibitor binding affinity is measured as apparent association constant Kass which is the hypothetical equilibrium constant for the reaction between enzyme and the test inhibitor compound (I).\nEnzyme+I⇄Enzyme−I [formula]\nConveniently, enzyme inhibition kinetics are performed in 96-well polystyrene plates and reaction rates are determined from the rate of hydrolysis of appropriate p-nitroanilide substrates at 405 nm using a Thermomax plate reader from Molecular Devices (San Francisco, Calif.). […] The rates of chromogenic substrate hydrolysis reactions provide a linear relationship with the enzymes studied such that free enzyme can be quantitated in reaction mixtures. […]", "note": "Counter-ions that a name gives are not always drawn.", "data": [{"smiles": "O=C(NC1CCN(C(=O)C2CCN(c3ccncc3)CC2)C1)c1ccc2cc[nH]c2c1", "note": "(stereo not shown) [Example 1, 3-[(6-Indolyl)carbonyl]amino-1-[[1-(4-pyridinyl)piperidin-4-yl]carbonyl]pyrrolidine Hydrochloride Salt]", "values": [{"measurement": "Kd", "result": 472, "unit": "nM"}]}]}
